Test results as given in ChEMBL document CHEMBL1221220, “Transport and signaling via the amino acid binding site of the yeast Gap1 amino acid transceptor” (Nat Chem Biol, 2009).
Non-standard residues stand in square brackets, D forms with d. Residues, ends and D or L forms follow the SMILES beside them. Cit = NC(=O)NCCC[C@H](N)C(=O)O; Abu = CC[C@H](N)C(=O)O; Sar = CNCC(=O)O

biological target: T1, General amino-acid permease GAP1 (Saccharomyces cerevisiae) (UniProt P19145); conditions: sigma1278b, at 5 mM
T1 sequence (whole entry): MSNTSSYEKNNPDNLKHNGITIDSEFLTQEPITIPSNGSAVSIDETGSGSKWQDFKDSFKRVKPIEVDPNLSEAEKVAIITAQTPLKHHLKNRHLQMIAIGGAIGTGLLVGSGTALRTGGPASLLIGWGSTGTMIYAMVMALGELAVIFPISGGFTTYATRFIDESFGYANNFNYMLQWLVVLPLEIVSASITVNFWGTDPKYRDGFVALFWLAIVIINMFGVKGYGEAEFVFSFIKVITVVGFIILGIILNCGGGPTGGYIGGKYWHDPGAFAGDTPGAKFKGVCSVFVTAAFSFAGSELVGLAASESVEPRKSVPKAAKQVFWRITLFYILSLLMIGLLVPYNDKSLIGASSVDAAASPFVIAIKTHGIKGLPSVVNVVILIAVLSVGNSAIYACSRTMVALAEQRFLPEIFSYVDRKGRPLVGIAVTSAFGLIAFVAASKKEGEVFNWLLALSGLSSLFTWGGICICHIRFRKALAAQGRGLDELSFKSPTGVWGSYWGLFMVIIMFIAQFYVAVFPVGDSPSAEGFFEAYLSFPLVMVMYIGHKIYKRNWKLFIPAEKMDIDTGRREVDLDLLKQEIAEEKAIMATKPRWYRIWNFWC
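Also: amino acid uptake through Gap1 in nitrogen-starved wild-type yeast cells, measured after 60 s and expressed relative to L-citrulline.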
Description: Inhibition of nitrogen-starved wild type sigma1278b yeast Gap1-mediated amino acid uptake at 5 mM after 60 secs relative to L-citrulline

Compound	inhibition
NC(=O)[C@H](CCC(=O)O)NC(=O)[C@@H]1CCCN1 (H-Pro-Glu-NH2)	< 15%
NCC(=O)N[C@@H](CCC(=O)O)C(=O)O (H-Gly-Glu-OH)	< 15%
CC(=O)N[C@H](C(=O)O)[C@@H](C)OC(C)(C)C	< 15%
CC(C)C[C@H](NC(=O)OC(C)(C)C)C(=O)O	< 15%
CC[C@H](N)C(=O)N[C@@H](CC(C)C)C(=O)O (H-[Abu]-Leu-OH)	< 15%
NC(=O)CC[C@H](NC(=O)[C@@H](N)CO)C(=O)O (H-Ser-Gln-OH)	< 15%
CC(=O)N1CCC[C@H]1C(=O)N[C@@H](Cc1ccccc1)C(=O)N[C@@H](CCCNC(=N)N)C(=O)O (Ac-Pro-Phe-Arg-OH)	< 15%
COC(=O)CC[C@H](NC(=O)OC(C)(C)C)C(=O)O	< 15%
CSCC[C@H](NC(=O)[C@@H](N)Cc1c[nH]c2ccccc12)C(=O)O (H-Trp-Met-OH)	< 15%
CC(C)C[C@H](NC(=O)[C@@H](N)CC(C)C)C(=O)N[C@@H](CCC(=O)O)C(=O)O (H-Leu-Leu-Glu-OH)	15%
CC(C)(C)OC(=O)[C@@H](N)CSSC[C@H](N)C(=O)OC(C)(C)C	< 15%
CC[C@H](C)[C@H](N)C(=O)N[C@@H](C)C(=O)N1CCC[C@H]1C(=O)O (H-Ile-Ala-Pro-OH)	15%
NC(=O)[C@@H](N)CO	< 15%
COC(=O)[C@H](C)N	< 15%
CC(C)C(NC(=O)CN)C(=O)O (stereo in doubt)	< 15%
CSCC[C@H](NC(=O)[C@H](CC(C)C)NC(=O)CN)C(N)=O (H-Gly-Leu-Met-NH2)	< 15%
CC(C)[C@H](N)C(=O)N[C@H](C(=O)O)C(C)C (H-Val-Val-OH)	15%
CC[C@H](C)[C@H](N)C(=O)N[C@H](C(=O)O)[C@@H](C)CC (H-Ile-Ile-OH)	< 15%

Compound	inhibition
C[C@H](NC=O)C(=O)O	> 30%
NCC(N)=O	< 15%
CC(C)CC(N)C(=O)NC(CC(C)C)C(=O)O (racemic)	> 30%
CC(C)C[C@H](NC(=O)CN)C(=O)O	< 15%
NCC(=O)NCC(=O)NCC(=O)O	< 15%
CC(C)C[C@H](NC(=O)CNC(=O)[C@@H](N)CC(C)C)C(=O)O (H-Leu-Gly-Leu-OH)	< 15%
CSCC[C@H](N)C(=O)N[C@@H](CCCNC(=N)N)C(=O)N[C@@H](Cc1ccccc1)C(=O)O (H-Met-Arg-Phe-OH)	15%
CCC[C@@H](NC(=O)[C@@H](N)CCC(=O)O)C(=O)O	< 15%
CC(C)(C)OC(=O)N[C@@H](CCCNC(=N)N)C(=O)O	< 15%
CC(C)C[C@H](NC(=O)[C@@H](N)CC(C)C)C(=O)N[C@@H](Cc1cnc[nH]1)C(=O)O (H-Leu-Leu-His-OH)	< 15%
CSCC[C@H](NC(=O)[C@@H](N)Cc1ccc(O)cc1)C(=O)O (H-Tyr-Met-OH)	< 15%
CC(C)C[C@@H](N)C(=O)NCC(=O)NCC(=O)O (H-[dL]-Gly-Gly-OH)	< 15%
C[C@@H](O)[C@H](NC(=O)[C@H](CCCCN)NC(=O)[C@@H](N)Cc1ccc(O)cc1)C(=O)O (H-Tyr-Lys-Thr-OH)	< 15%
CC(C)C[C@H](NC(=O)[C@@H](N)[C@@H](C)O)C(=O)O (H-Thr-Leu-OH)	< 15%
CSCC[C@H](N)C(=O)N[C@@H](Cc1cnc[nH]1)C(=O)O (H-Met-His-OH)	< 15%
N[C@@H](Cc1ccc(O)cc1)C(=O)NCC(=O)O	< 15%
C[C@H](NC(=O)CNC(=O)CN)C(=O)O	< 15%
N[C@@H](CO)Cc1c[nH]c2ccccc12	< 15%

Further lines, results first:

inhibition	Compound
< 15%	N[C@@H](Cc1cnc[nH]1)C(=O)NCCS(=O)(=O)O
< 15%	NCC(=O)NCC(=O)O (H-Gly-Gly-OH)
< 15%	CC(C)[C@H](NC(=O)[C@@H](N)CCCNC(N)=O)C(=O)O (H-[Cit]-Val-OH)
< 15%	CC[C@H](C)[C@H](NC(=O)CN)C(=O)NCC(=O)O (H-Gly-Ile-Gly-OH)
> 30%	C[C@H](N)C(=O)N[C@@H](Cc1cnc[nH]1)C(=O)O (H-Ala-His-OH)
< 15%	CC(C)(C)OC(=O)NCCC[C@H](N)C(=O)O
< 15%	CC(C)[C@H](N)C(=O)N[C@H](C(=O)N[C@@H](C(=O)O)C(C)C)C(C)C (H-Val-Val-[dV]-OH)
> 30%	C[C@H](N)C(=O)N[C@@H](CO)C(=O)O (H-Ala-Ser-OH)
< 15%	CC(C)(C)OC(=O)NC1(C(=O)O)CCCC1
< 15%	CC(C)C[C@@H](N)C(=O)N[C@H](Cc1ccc(O)cc1)C(=O)O
< 15%	N[C@@H](Cc1cnc[nH]1)C(=O)N[C@@H](CCC(=O)O)C(=O)O (H-His-Glu-OH)
< 15%	N[C@@H](Cc1ccccc1)C(=O)NCC(=O)O (H-Phe-Gly-OH)
> 30%	CC[C@H](C)[C@H](N)C(=O)N[C@@H](CC(C)C)C(=O)N[C@@H](CC(C)C)C(=O)O (H-Ile-Leu-Leu-OH)
< 15%	C[C@@H](NC(=O)[C@@H](N)CCC(=O)O)C(=O)O
15%	NCC(=O)N[C@@H](Cc1ccccc1)C(N)=O (H-Gly-Phe-NH2)
< 15%	CC(C)(C)OC(=O)[C@@H](N)Cc1ccccc1
< 15%	CC[C@H](C)[C@H](NC(=O)OC(C)(C)C)C(=O)O
< 15%	NC(=O)[C@@H]1CCCN1
< 15%	COC(=O)[C@H](CO)NC(=O)OC(C)(C)C
< 15%	CC(C)C[C@H](NC(=O)[C@@H](N)CC(C)C)C(=O)N[C@H](C(=O)O)C(C)C (H-Leu-Leu-Val-OH)

inhibition	Compound
15%	CN[C@@H](CC(C)C)C(=O)N[C@@H](CC(C)C)C(=O)O
< 15%	CSCC[C@H](N)C(=O)N[C@@H](C)C(=O)N[C@@H](CO)C(=O)O (H-Met-Ala-Ser-OH)
< 15%	CC(C)[C@H](N)C(=O)N[C@@H](CO)C(=O)O (H-Val-Ser-OH)
> 30%	NCC(=O)N[C@@H](Cc1ccccc1)C(=O)O
< 15%	CCOC(=O)[C@@H](N)Cc1ccccc1
< 15%	N[C@@H]1CONC1=O
< 15%	C[C@@H](CC(=O)O)NC(=O)OC(C)(C)C
< 15%	COC(=O)[C@H](N)Cc1cnc[nH]1
< 15%	C[C@H](NC(=O)[C@@H](N)CCC(N)=O)C(=O)O (H-Gln-Ala-OH)
< 15%	CC(C)(C)OC(=O)N[C@@H](CCCCN)C(=O)O
< 15%	CSCC[C@H](NC(=O)CN)C(=O)O
< 15%	N[C@@H](Cc1cnc[nH]1)C(=O)NCC(=O)N[C@@H](Cc1cnc[nH]1)C(=O)O (H-His-Gly-His-OH)
< 15%	COC(=O)[C@@H](N)Cc1ccc(O)cc1
< 15%	CC(C)[C@H](N)C(=O)NCC(=O)O (H-Val-Gly-OH)
> 30%	C[C@H](N)C(=O)NCC(=O)O
< 15%	COC(=O)[C@@H](N)Cc1c[nH]c2ccccc12
< 15%	NCC(=O)NCC(=O)N[C@@H](Cc1ccc(O)cc1)C(=O)O (H-Gly-Gly-Tyr-OH)
< 15%	CCOC(=O)[C@@H](N)CCSC
< 15%	N[C@@H](CCC(=O)O)C(=O)N[C@@H](Cc1c[nH]c2ccccc12)C(=O)N[C@@H](CCC(=O)O)C(=O)O (H-Glu-Trp-Glu-OH)
< 15%	CN(CC(=O)O)C(=O)CN (H-Gly-[Sar]-OH)
